# From PubChem BioAssay AID298 (DTP/NCI, 2004)
# Where “and” joins values, the source holds several entries; their conditions need not be identical. Equal entries are not always repeated. Results filed as inconclusive are left out.
# Tested on: MX-1 breast xenograft, intrarenal, nude mice, tumor weight
# Experiment: NCI In Vivo Anticancer Drug Screen. Data for tumor model Human Mammary Carcinoma MX-1 Xenograft (intrarenal inoculation) in NU/NU BALB/C (nude) mice
# Conditions: endpoint: mean tumor weight change, higher = larger tumour
# Procedure: The antitumor activity of compounds was measured in mice bearing transplantable tumors. Survival or tumor size were measured and the results are expressed as the measurement made in the treated group (T) divided by the measurement made in the vehicle treated control group (C). The tumor model used in this assay is Human Mammary Carcinoma MX-1 Xenograft (intrarenal inoculation) in NU/NU BALB/C (nude) mice
# [1] = dose: 150.0 mg/kg/injection, schedule: Q04DX003 (ip), vehicle: Klucel (hydroxypropylcellulose) (HPC)
# [2] = dose: 300.0 mg/kg/injection, schedule: Q04DX003 (ip), vehicle: Klucel (hydroxypropylcellulose) (HPC)
# [3] = dose: 600.0 mg/kg/injection, schedule: Q04DX003 (ip), vehicle: Klucel (hydroxypropylcellulose) (HPC)
# [4] = dose: 300.0 mg/kg/injection, schedule: Q04DX003 (sc), vehicle: saline
# [5] = dose: 600.0 mg/kg/injection, schedule: Q04DX003 (sc), vehicle: saline
# [6] = dose: 75.0 mg/kg/injection, schedule: Q04DX003 (ip), vehicle: saline with Tween-80
smiles,measurement,setting,value
Nc1nc(Br)nc2c1ncn2C1CC(O)C(CO)O1 (configuration not stated),T/C,"dose: 7.5 mg/kg/injection, schedule: Q03DX003 (ip), vehicle: saline",109 % of control
same,T/C,"dose: 15.0 mg/kg/injection, schedule: Q03DX003 (ip), vehicle: saline",88 % of control
same,T/C,"dose: 30.0 mg/kg/injection, schedule: Q03DX003 (ip), vehicle: saline",43 % of control
same,T/C,"dose: 60.0 mg/kg/injection, schedule: Q03DX003 (ip), vehicle: saline",59 % of control
same,T/C,"dose: 120.0 mg/kg/injection, schedule: Q03DX003 (ip), vehicle: saline",65 % of control
O=C1CNC(=O)N1CN1CCOCC1,T/C,[1],83 % of control
same,T/C,[2],89 % of control
same,T/C,[3],81 % of control
CCn1c(-c2ccc(OC(C)=O)cc2)c(C)c2cc(OC(C)=O)ccc21,T/C,[1],68 % of control
same,T/C,[2],61 % of control
same,T/C,[3],63 % of control
same,T/C,"dose: 1200.0 mg/kg/injection, schedule: Q04DX003 (ip), vehicle: Klucel (hydroxypropylcellulose) (HPC)",47 % of control
OCCN1CCN(CC/C=C2/c3ccccc3Sc3ccc(C(F)(F)F)cc32)CC1,T/C,"dose: 30.0 mg/kg/injection, schedule: Q04DX003 (sc), vehicle: saline",65 % of control
same,T/C,"dose: 60.0 mg/kg/injection, schedule: Q04DX003 (sc), vehicle: saline",43 % of control and 44 % of control
same,T/C,"dose: 120.0 mg/kg/injection, schedule: Q04DX003 (sc), vehicle: saline",11 % of control and 33 % of control
N#Cc1c(N)[nH]c2ccc(Sc3ccccc3)cc12,T/C,"dose: 30.0 mg/kg/injection, schedule: Q04DX003 (ip), vehicle: saline with Tween-80",92 % of control
same,T/C,"dose: 60.0 mg/kg/injection, schedule: Q04DX003 (ip), vehicle: saline with Tween-80",88 % of control
same,T/C,"dose: 120.0 mg/kg/injection, schedule: Q04DX003 (ip), vehicle: saline with Tween-80",75 % of control
CC(=O)O[C@H]1C(=O)[C@@]2(C)[C@H]([C@H](OC(=O)c3ccccc3)[C@]3(O)C[C@H](OC(=O)[C@H](O)[C@@H](NC(=O)c4ccccc4)c4ccccc4)C(C)=C1C3(C)C)[C@]1(OC(C)=O)CO[C@@H]1C[C@@H]2O,T/C,"dose: 1.88 mg/kg/injection, schedule: Q01DX009 (ip), vehicle: Klucel (hydroxypropylcellulose) (HPC)",5 % of control and 16 % of control
same,T/C,"dose: 2.5 mg/kg/injection, schedule: Q01DX009 (ip), vehicle: Klucel (hydroxypropylcellulose) (HPC)",12 % of control
same,T/C,"dose: 3.75 mg/kg/injection, schedule: Q01DX009 (ip), vehicle: Klucel (hydroxypropylcellulose) (HPC)",-80 % of control and -100 % of control
same,T/C,"dose: 4.45 mg/kg/injection, schedule: Q01DX009 (ip), vehicle: Klucel (hydroxypropylcellulose) (HPC)",-100 % of control
same,T/C,"dose: 5.0 mg/kg/injection, schedule: Q01DX009 (ip), vehicle: Klucel (hydroxypropylcellulose) (HPC)",-61 % of control
same,T/C,"dose: 6.67 mg/kg/injection, schedule: Q01DX009 (ip), vehicle: Klucel (hydroxypropylcellulose) (HPC)",-100 % of control
same,T/C,"dose: 7.5 mg/kg/injection, schedule: Q01DX009 (ip), vehicle: Klucel (hydroxypropylcellulose) (HPC)",-100 % of control
same,T/C,"dose: 10.0 mg/kg/injection, schedule: Q01DX009 (ip), vehicle: Klucel (hydroxypropylcellulose) (HPC)",-84 % of control and -100 % of control
same,T/C,"dose: 15.0 mg/kg/injection, schedule: Q01DX009 (ip), vehicle: Klucel (hydroxypropylcellulose) (HPC)",-100 % of control
C=C(OC)C(Nc1cc(OC)c(OC)cc1C(=O)OC1CC(O[C@@H]2C(=O)C(NC(=O)OC)=C3/C(=C\CSSSC)[C@]2(O)C#C/C=C\C#C[C@@H]3OC2OC(C)C(NOC3CC(O)C(SC)C(C)O3)C(O)C2OC2CC(OC)C(NCCC)CO2)OC(C)C1O)OC (some centres not stated),T/C,"dose: 0.31 micrograms/kg/injection, schedule: Q04DX003 (ip), vehicle: alcohol",71 % of control
same,T/C,"dose: 0.32 micrograms/kg/injection, schedule: Q04DX003 (ip), vehicle: saline + alcohol",39 % of control
same,T/C,"dose: 0.62 micrograms/kg/injection, schedule: Q04DX003 (ip), vehicle: alcohol",68 % of control
same,T/C,"dose: 0.64 micrograms/kg/injection, schedule: Q04DX003 (ip), vehicle: saline + alcohol",17 % of control
same,T/C,"dose: 1.25 micrograms/kg/injection, schedule: Q04DX003 (ip), vehicle: alcohol",22 % of control
same,T/C,"dose: 1.28 micrograms/kg/injection, schedule: Q04DX003 (ip), vehicle: saline + alcohol",27 % of control
same,T/C,"dose: 2.5 micrograms/kg/injection, schedule: Q04DX003 (ip), vehicle: alcohol",26 % of control
same,T/C,"dose: 2.56 micrograms/kg/injection, schedule: Q04DX003 (ip), vehicle: saline + alcohol",13 % of control
same,T/C,"dose: 5.0 micrograms/kg/injection, schedule: Q04DX003 (ip), vehicle: alcohol",12 % of control
O=[N+]([O-])c1nccn1CC(O)CO (configuration not stated),T/C,"dose: 300.0 mg/kg/injection, schedule: Q04DX004 (sc), vehicle: saline",96 % of control
same,T/C,"dose: 600.0 mg/kg/injection, schedule: Q04DX004 (sc), vehicle: saline",91 % of control
same,T/C,"dose: 2400.0 mg/kg/injection, schedule: Q04DX004 (sc), vehicle: saline",93 % of control
O=C1N[C@H]2[C@H](O)[C@H](O)[C@@H](O)[C@H](O)[C@@H]2c2cc3c(c(O)c21)OCO3,T/C,"dose: 12.5 mg/kg/injection, schedule: Q04DX003 (ip), vehicle: saline + alcohol",72 % of control
O=C1CCC(=O)N1CO,T/C,[4],73 % of control
same,T/C,[5],86 % of control
CC[C@]1(O)C[C@H]2CN(CCc3c([nH]c4ccccc34)[C@@](C(=O)OC)(c3cc4c(cc3OC)N(C)[C@H]3[C@@](O)(C(=O)OC)[C@H](OC(C)=O)[C@]5(CC)C=CCN6CC[C@]43[C@@H]65)C2)C1,T/C,"dose: 0.25 mg/kg/injection, schedule: Q01DX010 (sc), vehicle: saline",43 % of control
same,T/C,"dose: 0.5 mg/kg/injection, schedule: Q01DX010 (sc), vehicle: saline",18 % of control
C=C(C)/C([O-])=N/[N+](C)(C)CC(O)CCCCCCCCCCCC (configuration not stated),T/C,"dose: 5.0 mg/kg/injection, schedule: Q04DX003 (ip), vehicle: Klucel (hydroxypropylcellulose) (HPC)",76 % of control
same,T/C,"dose: 10.0 mg/kg/injection, schedule: Q04DX003 (ip), vehicle: Klucel (hydroxypropylcellulose) (HPC)",111 % of control
same,T/C,"dose: 20.0 mg/kg/injection, schedule: Q04DX003 (ip), vehicle: Klucel (hydroxypropylcellulose) (HPC)",90 % of control and 103 % of control
same,T/C,"dose: 40.0 mg/kg/injection, schedule: Q04DX003 (ip), vehicle: Klucel (hydroxypropylcellulose) (HPC)",78 % of control
same,T/C,"dose: 80.0 mg/kg/injection, schedule: Q04DX003 (ip), vehicle: Klucel (hydroxypropylcellulose) (HPC)",102 % of control and 118 % of control
same,T/C,"dose: 320.0 mg/kg/injection, schedule: Q04DX003 (ip), vehicle: Klucel (hydroxypropylcellulose) (HPC)",85 % of control
CC1(C)OCC2OC=CC(=O)C2O1 (configuration not stated),T/C,"dose: 150.0 mg/kg/injection, schedule: Q04DX003 (sc), vehicle: saline",110 % of control
same,T/C,[4],97 % of control
same,T/C,[5],74 % of control
Cc1nnc2ncccn12,T/C,"dose: 100.0 mg/kg/injection, schedule: Q04DX003 (sc), vehicle: saline",86 % of control
same,T/C,"dose: 200.0 mg/kg/injection, schedule: Q04DX003 (sc), vehicle: saline",104 % of control
NC(Cc1ccc(N(CCCl)CCCl)cc1)C(=O)O (configuration not stated),T/C,"dose: 10.0 mg/kg/injection, schedule: Q04DX003 (sc), vehicle: Klucel (hydroxypropylcellulose) (HPC)",-85 % of control and -98 % of control
same,T/C,"dose: 20.0 mg/kg/injection, schedule: Q04DX003 (sc), vehicle: Klucel (hydroxypropylcellulose) (HPC)",-90 % of control
O=C(CN1CCOCC1)Nc1nc(-c2ccc(Cl)cc2)cs1,T/C,"dose: 150.0 mg/kg/injection, schedule: Q04DX003 (ip), vehicle: other",96 % of control
same,T/C,"dose: 600.0 mg/kg/injection, schedule: Q04DX003 (ip), vehicle: other",71 % of control
same,T/C,"dose: 1200.0 mg/kg/injection, schedule: Q04DX003 (ip), vehicle: other",60 % of control
COc1cc(O)c2c(O)c3c(c4c2c1[C@]1(C4)C(C)=CCCC1(C)C)[C@H](O)[C@@]1(O)CC(=O)C(C(N)=O)=C(O)[C@@]1(O)C3=O,T/C,[6],106 % of control
C/C(=N\NC(=S)N1CC2CCC(CC2)C1)c1nccs1,T/C,[6],78 % of control
COc1cc(C2c3cc4c(cc3[C@@H](OC3OC5CO[C@@H](C)OC5C(O)C3O)[C@H]3COC(=O)C23)OCO4)cc(OC)c1OC (some centres not stated),T/C,"dose: 25.0 mg/kg/injection, schedule: Q04DX003 (ip), vehicle: saline",88 % of control
same,T/C,"dose: 50.0 mg/kg/injection, schedule: Q04DX003 (ip), vehicle: saline",84 % of control
same,T/C,"dose: 100.0 mg/kg/injection, schedule: Q04DX003 (ip), vehicle: saline",55 % of control
same,T/C,"dose: 200.0 mg/kg/injection, schedule: Q04DX003 (ip), vehicle: saline",61 % of control
same,T/C,"dose: 400.0 mg/kg/injection, schedule: Q04DX003 (ip), vehicle: saline",32 % of control
